# Measured values published in ChEMBL document CHEMBL1201862, “PubChem BioAssay data set” (2004).
#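 Growth conditions: 96-well plates. Treatment: test compound, 48 hours, 5 concentrations. Analysis: linear interpolation between bracketing concentrations; unreached endpoints set to highest concentration. GI50 = concentration required for 50% inhibition of growth.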 The source made the active and inactive calls. Cut-off read from the data, not from the text of the source: active = GI50 up to about 1.1 µM and inactive = higher.
# What was measured:
# Experiment in all cases: inhibition of tumour cell growth, NCI panel, 48 h
# RXF 393 = system: RXF 393
# SW-620 = system: SW-620
# U-251 = system: U-251
# SF-539 = system: SF-539
# NCI-H460 = system: NCI-H460
# LOX IMVI = system: LOX IMVI
# SK-MEL-5 = system: SK-MEL-5
# SNB-75 = system: SNB-75
# NCI-H522 = system: NCI-H522
# ACHN = system: ACHN
# A498 = system: A498
# SF-295 = system: SF-295
# HOP-18 = system: HOP-18
# SK-OV-3 = system: SK-OV-3
# HOP-62 = system: HOP-62
# CCRF-CEM = system: CCRF-CEM
# NCI-H23 = system: NCI-H23
# COLO 205 = system: COLO 205
# A549 = system: A549
# TK-10 = system: TK-10
# HCT-116 = system: HCT-116
# RPMI-8226 = system: RPMI-8226
# UACC-257 = system: UACC-257
# HT-29 = system: HT-29
# M19-MEL = system: M19-MEL
# NCI-H226 = system: NCI-H226
# SK-MEL-2 = system: SK-MEL-2
# SN12C = system: SN12C
# OVCAR-8 = system: OVCAR-8
# UO-31 = system: UO-31
# HOP-92 = system: HOP-92
# IGROV-1 = system: IGROV-1
# LXFL 529 = system: LXFL 529
# DMS-273 = system: DMS-273
# KM-20L2 = system: KM-20L2
# DMS-114 = system: DMS-114
# SNB-78 = system: SNB-78
# KM12 = system: KM12
# SNB-19 = system: SNB-19
# CAKI-1 = system: CAKI-1
# MOLT-4 = system: MOLT-4
# UACC-62 = system: UACC-62
# HCT-15 = system: HCT-15
# XF498 = system: XF498
# M14 = system: M14
# SF-268 = system: SF-268
# OVCAR-4 = system: OVCAR-4
# 786-0 = system: 786-0
# HL-60 = system: HL-60
# K562 = system: K562
# DLD-1 = system: DLD-1
# SK-MEL-28 = system: SK-MEL-28
# OVCAR-3 = system: OVCAR-3
# EKVX = system: EKVX
# Malme-3M = system: Malme-3M
# OVCAR-5 = system: OVCAR-5
# SR = system: SR
# HCC 2998 = system: HCC 2998
# RXF 631 = system: RXF 631
structure (smiles),measurement,setting,value
NCC(=O)OCN1C(=O)C2C3C=CC(C2C1=O)C1C2C(=O)N(COC(=O)CN)C(=O)C2C31 (centres undefined),GI50,RXF 393,20.6 µM (inactive)
same,GI50,SW-620,22.4 µM (inactive)
same,GI50,U-251,22 µM (inactive)
same,GI50,SF-539,30.2 µM (inactive)
same,GI50,NCI-H460,16.6 µM (inactive)
same,GI50,LOX IMVI,20 µM (inactive)
same,GI50,SK-MEL-5,25.5 µM (inactive)
same,GI50,SNB-75,23.6 µM (inactive)
same,GI50,NCI-H522,12.5 µM (inactive)
same,GI50,ACHN,24.5 µM (inactive)
same,GI50,A498,> 100 µM (inactive)
same,GI50,SF-295,> 100 µM (inactive)
same,GI50,HOP-18,25.6 µM (inactive)
same,GI50,SK-OV-3,76.9 µM (inactive)
same,GI50,HOP-62,> 100 µM (inactive)
same,GI50,CCRF-CEM,22.9 µM (inactive)
same,GI50,NCI-H23,21.1 µM (inactive)
same,GI50,COLO 205,21.4 µM (inactive)
same,GI50,A549,30.1 µM (inactive)
same,GI50,TK-10,31.3 µM (inactive)
same,GI50,HCT-116,16.9 µM (inactive)
same,GI50,RPMI-8226,32.1 µM (inactive)
same,GI50,UACC-257,36.3 µM (inactive)
same,GI50,HT-29,40.6 µM (inactive)
same,GI50,M19-MEL,24.8 µM (inactive)
same,GI50,NCI-H226,50.5 µM (inactive)
same,GI50,SK-MEL-2,19.4 µM (inactive)
same,GI50,SN12C,23.3 µM (inactive)
same,GI50,OVCAR-8,20.7 µM (inactive)
same,GI50,UO-31,31.9 µM (inactive)
same,GI50,HOP-92,94 µM (inactive)
same,GI50,IGROV-1,41.8 µM (inactive)
same,GI50,LXFL 529,22.7 µM (inactive)
same,GI50,DMS-273,18.2 µM (inactive)
same,GI50,KM-20L2,24.3 µM (inactive)
same,GI50,DMS-114,20.9 µM (inactive)
same,GI50,SNB-78,42 µM (inactive)
same,GI50,KM12,22.2 µM (inactive)
same,GI50,SNB-19,71.3 µM (inactive)
same,GI50,CAKI-1,53.5 µM (inactive)
same,GI50,MOLT-4,28.9 µM (inactive)
same,GI50,UACC-62,23 µM (inactive)
same,GI50,HCT-15,19.1 µM
same,GI50,XF498,17.9 µM (inactive)
same,GI50,M14,20.5 µM (inactive)
same,GI50,SF-268,20.9 µM (inactive)
same,GI50,OVCAR-4,20 µM (inactive)
same,GI50,786-0,22.8 µM (inactive)
same,GI50,HL-60,12.4 µM (inactive)
same,GI50,K562,30.5 µM (inactive)
same,GI50,DLD-1,24.3 µM (inactive)
same,GI50,SK-MEL-28,19.1 µM (inactive)
same,GI50,OVCAR-3,35.7 µM (inactive)
OCC1CC2C=CCC(C2)C1 (centres undefined),GI50,RXF 393,> 100 µM (inactive)
same,GI50,EKVX,> 100 µM (inactive)
same,GI50,SW-620,> 100 µM (inactive)
same,GI50,U-251,> 100 µM (inactive)
same,GI50,SF-539,> 100 µM (inactive)
same,GI50,NCI-H460,> 100 µM (inactive)
same,GI50,LOX IMVI,> 100 µM (inactive)
same,GI50,SK-MEL-5,> 100 µM (inactive)
same,GI50,SNB-75,> 100 µM (inactive)
same,GI50,NCI-H522,> 100 µM (inactive)
same,GI50,ACHN,> 100 µM (inactive)
same,GI50,Malme-3M,> 100 µM (inactive)
same,GI50,A498,> 100 µM (inactive)
same,GI50,SF-295,> 100 µM (inactive)
same,GI50,HOP-18,> 100 µM (inactive)
same,GI50,SK-OV-3,> 100 µM (inactive)
same,GI50,HOP-62,> 100 µM (inactive)
same,GI50,CCRF-CEM,> 100 µM (inactive)
same,GI50,NCI-H23,> 100 µM (inactive)
same,GI50,COLO 205,> 100 µM (inactive)
same,GI50,A549,> 100 µM (inactive)
same,GI50,TK-10,> 100 µM (inactive)
same,GI50,HCT-116,> 100 µM (inactive)
same,GI50,RPMI-8226,> 100 µM (inactive)
same,GI50,UACC-257,> 100 µM (inactive)
same,GI50,HT-29,> 100 µM (inactive)
same,GI50,M19-MEL,> 100 µM (inactive)
same,GI50,NCI-H226,> 100 µM (inactive)
same,GI50,SK-MEL-2,> 100 µM (inactive)
same,GI50,SN12C,> 100 µM (inactive)
same,GI50,OVCAR-8,> 100 µM (inactive)
same,GI50,UO-31,> 100 µM (inactive)
same,GI50,HOP-92,> 100 µM (inactive)
same,GI50,IGROV-1,> 100 µM (inactive)
same,GI50,LXFL 529,> 100 µM (inactive)
same,GI50,DMS-273,> 100 µM (inactive)
same,GI50,KM-20L2,> 100 µM (inactive)
same,GI50,DMS-114,> 100 µM (inactive)
same,GI50,SNB-78,> 100 µM (inactive)
same,GI50,KM12,> 100 µM (inactive)
same,GI50,OVCAR-5,> 100 µM (inactive)
same,GI50,SNB-19,> 100 µM (inactive)
same,GI50,CAKI-1,> 100 µM (inactive)
same,GI50,MOLT-4,> 100 µM (inactive)
same,GI50,UACC-62,> 100 µM (inactive)
same,GI50,XF498,> 100 µM (inactive)
same,GI50,M14,> 100 µM (inactive)
same,GI50,SF-268,> 100 µM (inactive)
same,GI50,OVCAR-4,> 100 µM (inactive)
same,GI50,786-0,> 100 µM (inactive)
same,GI50,HL-60,> 100 µM (inactive)
same,GI50,SR,> 100 µM (inactive)
same,GI50,K562,> 100 µM (inactive)
same,GI50,DLD-1,> 100 µM (inactive)
same,GI50,SK-MEL-28,> 100 µM (inactive)
same,GI50,OVCAR-3,> 100 µM (inactive)
NCCNCc1c2ccccc2c(CNCCN)c2ccccc12,GI50,RXF 393,15.7 µM (inactive)
same,GI50,EKVX,20.2 µM (inactive)
same,GI50,SW-620,11.1 µM (inactive)
same,GI50,HCC 2998,9.59 µM (inactive)
same,GI50,U-251,22 µM (inactive)
same,GI50,SF-539,12.2 µM (inactive)
same,GI50,RXF 631,45.7 µM (inactive)
same,GI50,NCI-H460,6.97 µM (inactive)
same,GI50,SK-MEL-5,26.4 µM (inactive)
same,GI50,NCI-H522,8.13 µM (inactive)
same,GI50,ACHN,34.8 µM (inactive)
same,GI50,Malme-3M,14 µM (inactive)
same,GI50,A498,22.3 µM (inactive)
same,GI50,SF-295,17.4 µM (inactive)
same,GI50,HOP-18,25.7 µM (inactive)
same,GI50,HOP-62,24.3 µM (inactive)
same,GI50,CCRF-CEM,15.4 µM (inactive)
same,GI50,NCI-H23,13.1 µM (inactive)
same,GI50,COLO 205,8.17 µM (inactive)
same,GI50,A549,12.1 µM (inactive)
same,GI50,TK-10,69 µM (inactive)
same,GI50,HCT-116,5.18 µM (inactive)
same,GI50,UACC-257,16.4 µM (inactive)
same,GI50,HT-29,6.21 µM (inactive)
same,GI50,M19-MEL,14.8 µM (inactive)
same,GI50,SK-MEL-2,14.5 µM (inactive)
same,GI50,SN12C,10.5 µM (inactive)
same,GI50,OVCAR-8,13.2 µM (inactive)
same,GI50,UO-31,49.4 µM (inactive)
same,GI50,HOP-92,22.2 µM (inactive)
same,GI50,IGROV-1,32.3 µM (inactive)
same,GI50,LXFL 529,5.86 µM (inactive)
same,GI50,KM-20L2,10.3 µM (inactive)
same,GI50,DMS-114,11.6 µM (inactive)
same,GI50,SNB-78,12.7 µM (inactive)
same,GI50,KM12,15.3 µM (inactive)
same,GI50,OVCAR-5,27.4 µM (inactive)
same,GI50,MOLT-4,3.78 µM (inactive)
same,GI50,UACC-62,22 µM (inactive)
same,GI50,HCT-15,38 µM
same,GI50,M14,16.3 µM (inactive)
same,GI50,SF-268,7.98 µM (inactive)
same,GI50,OVCAR-4,> 10 µM (inactive)
same,GI50,786-0,13.3 µM (inactive)
same,GI50,HL-60,20.4 µM (inactive)
same,GI50,SR,4.18 µM (inactive)
same,GI50,K562,7.59 µM (inactive)
same,GI50,DLD-1,53.1 µM (inactive)
same,GI50,SK-MEL-28,> 10 µM (inactive)
same,GI50,OVCAR-3,18.2 µM (inactive)
